The values below come from patent US20230009626A1 (ICHNOS SCIENCES S.A., priority 2018, published 2023).

Some results are limits rather than exact numbers.

This assay deals with HPK1 (MAP4K1) (Homo sapiens, UniProt Q92918). The experiment in a line: FRET Assay for HPK1 (MAP4K1): one step binding assay, displacement of labeled tracer. Particulars: for inhibition at 1 µM: 1 μM compound; for inhibition at 1 µM / inhibition at 10 µM: FRET ratio 665/620, percent of control; for inhibition at 10 µM: 10 μM compound; for IC50: dose response curve, nonlinear regression. The method in brief:
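TR-FRET tracer-displacement binding assay. GST-tagged HPK1 (10 nM) and Eu-anti-GST antibody (4 nM) were pre-incubated with compound on ice for 15 min in 50 mM HEPES pH 7.5, 10 mM MgCl2, 1 mM EGTA, 0.01% Brij-35 (3% DMSO final). Kinase Tracer 222 (20 nM) was then added for 1 h at room temperature. IC50 came from nonlinear regression of percent of control; percent inhibition was also given at 1.0 and 10.0 μM.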

By inhibition is commonly meant the share of the control response that was lost under treatment. For orientation: IC50 means the concentration at which inhibition is half-maximal. Low readings indicate inhibition by little substance, high ones a need for much substance.

Sequence of HPK1 (MAP4K1) (Q92918 whole entry): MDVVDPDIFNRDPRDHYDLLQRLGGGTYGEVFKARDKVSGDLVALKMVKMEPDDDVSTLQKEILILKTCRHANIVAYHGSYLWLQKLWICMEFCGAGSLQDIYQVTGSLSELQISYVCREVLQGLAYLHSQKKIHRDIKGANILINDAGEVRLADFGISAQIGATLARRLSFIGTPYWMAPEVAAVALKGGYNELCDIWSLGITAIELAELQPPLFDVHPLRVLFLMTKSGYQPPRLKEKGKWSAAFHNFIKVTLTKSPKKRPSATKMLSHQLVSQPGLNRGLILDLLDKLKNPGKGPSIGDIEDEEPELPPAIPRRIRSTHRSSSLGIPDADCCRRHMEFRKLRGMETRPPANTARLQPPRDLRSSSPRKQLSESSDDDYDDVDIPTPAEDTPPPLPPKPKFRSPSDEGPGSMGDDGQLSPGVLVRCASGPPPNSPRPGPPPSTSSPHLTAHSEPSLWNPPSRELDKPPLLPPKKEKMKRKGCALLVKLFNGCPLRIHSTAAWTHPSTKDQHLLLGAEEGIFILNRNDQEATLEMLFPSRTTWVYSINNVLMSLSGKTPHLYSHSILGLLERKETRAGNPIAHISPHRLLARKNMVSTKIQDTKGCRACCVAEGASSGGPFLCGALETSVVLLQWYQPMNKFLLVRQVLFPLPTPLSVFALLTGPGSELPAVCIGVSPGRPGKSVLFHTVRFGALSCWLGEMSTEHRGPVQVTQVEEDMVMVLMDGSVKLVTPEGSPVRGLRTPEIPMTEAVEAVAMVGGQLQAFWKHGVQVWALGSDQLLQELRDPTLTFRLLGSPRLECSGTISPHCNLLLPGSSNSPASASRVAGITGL

Regarding `C/C(Nc1cc(C)n(CC(F)F)n1)=C1/C(=O)Nc2cnc(-c3c(C)cccc3F)cc21` [Example 201, (Z)-3-(1-((1-(2,2-Difluoroethyl)-5-methyl-1H-pyrazol-3-yl)amino)ethylidene)-5-(2-fluoro-6-methylphenyl)-1H-pyrrolo[2,3-c]pyridin-2(3H)-one], the inhibition at 1 µM came out at 65.7%, the inhibition at 10 µM came out at 73.6% and the IC50 is under 50 nM.

Consider `C/C(Nc1cc(C)n(CC(C)C)n1)=C1/C(=O)Nc2cnc(-c3c(C)cccc3F)cc21` [Example 202, (Z)-5-(2-Fluoro-6-methylphenyl)-3-(1-((1-isobutyl-5-methyl-1H-pyrazol-3-yl)amino)ethylidene)-1H-pyrrolo[2,3-c]pyridin-2(3H)-one], for which the inhibition at 1 µM is 75.7%, the inhibition at 10 µM is 61% and the IC50 was under 50 nM.

For the compound `C/C(Nc1cc(C)n(CCC(C)(C)O)n1)=C1/C(=O)Nc2cnc(-c3c(C)cccc3F)cc21` [Example 203, (Z)-5-(2-Fluoro-6-methylphenyl)-3-(1-((1-(3-hydroxy-3-methylbutyl)-5-methyl-1H-pyrazol-3-yl)amino)ethylidene)-1H-pyrrolo[2,3-c]pyridin-2(3H)-one], the inhibition at 1 µM worked out at 67.6%, the inhibition at 10 µM was determined as 83% and the half-maximal inhibitory concentration (IC50) is under 50 nM.

As for `C/C(Nc1cc(C)n(CCC(C)C)n1)=C1/C(=O)Nc2cnc(-c3cnccc3C)cc21` [Example 204, (Z)-3-(1-((1-Isopentyl-5-methyl-1H-pyrazol-3-yl)amino)ethylidene)-5-(4-methylpyridin-3-yl)-1H-pyrrolo[2,3-c]pyridin-2(3H)-one], the inhibition at 1 µM was 72.7%, the inhibition at 10 µM stood at 86.1% and the IC50 is under 50 nM.

With `C/C(Nc1ncc(C)s1)=C1/C(=O)Nc2cnc(-c3c(C)cccc3F)cc21` [Example 205, (Z)-5-(2-Fluoro-6-methylphenyl)-3-(1-((5-methylthiazol-2-yl)amino)ethylidene)-1H-pyrrolo[2,3-c]pyridin-2(3H)-one], the inhibition at 1 µM is 73.3% and the half-inhibitory concentration (IC50) was under 50 nM.

As to `C/C(Nc1cc2n(n1)CC(=O)N(C(C)C)C2)=C1/C(=O)Nc2cnc(-c3c(C)cccc3F)cc21` [Example 206, (Z)-2-((1-(5-(2-Fluoro-6-methylphenyl)-2-oxo-1H-pyrrolo[2,3-c]pyridin-3(2H)-ylidene)ethyl)amino)-5-isopropyl-4,5-dihydropyrazolo[1,5-a]pyrazin-6(7H)-one], the inhibition at 1 µM worked out at 72.4%, the inhibition at 10 µM is 84.9% and the IC50 was under 50 nM.

As for `C/C(Nc1cc(C)n(C(C)(C)C#N)n1)=C1/C(=O)Nc2cnc(-c3c(C)cccc3F)cc21` [Example 207, (Z)-2-(3-((1-(5-(2-Fluoro-6-methylphenyl)-2-oxo-1H-pyrrolo[2,3-c]pyridin-3(2H)-ylidene)ethyl)amino)-5-methyl-1H-pyrazol-1-yl)-2-methylpropanenitrile], the inhibition at 1 µM came out at 73.8% and the IC50 is under 50 nM.

In the case of `C/C(Nc1cc(C)n([C@@H](C)C#N)n1)=C1/C(=O)Nc2cnc(-c3c(C)cccc3F)cc21` [Example 208, (S,Z)-2-(3-((1-(5-(2-Fluoro-6-methylphenyl)-2-oxo-1H-pyrrolo[2,3-c]pyridin-3(2H)-ylidene)ethyl)amino)-5-methyl-1H-pyrazol-1-yl)propanenitrile], the inhibition at 1 µM was determined as 79.7% and the IC50 was under 50 nM.

As to `C/C(Nc1cc(C)n(C[C@H](C)O)n1)=C1/C(=O)Nc2cnc(-c3c(C)cccc3F)cc21` [Example 209, (S,Z)-5-(2-Fluoro-6-methylphenyl)-3-(1-((1-(2-hydroxypropyl)-5-methyl-1H-pyrazol-3-yl)amino)ethylidene)-1H-pyrrolo[2,3-c]pyridin-2(3H)-one], the inhibition at 1 µM worked out at 75.7%, the inhibition at 10 µM was found to be 78.9% and the IC50 was under 50 nM.

For the compound `C/C(Nc1cc(C)n(C)n1)=C1/C(=O)Nc2cnc(-c3cc(F)ccc3C)cc21` [Example 210, (Z)-3-(1-((1,5-Dimethyl-1H-pyrazol-3-yl)amino)ethylidene)-5-(5-fluoro-2-methylphenyl)-1H-pyrrolo[2,3-c]pyridin-2(3H)-one], the inhibition at 1 µM stood at 70.8% and the IC50 was under 50 nM.

In the case of `C/C(Nc1cc(C)n(C(C)C)n1)=C1/C(=O)Nc2cnc(-c3cnccc3C)cc21` [Example 211, (Z)-3-(1-((1-Isopropyl-5-methyl-1H-pyrazol-3-yl)amino)ethylidene)-5-(4-methylpyridin-3-yl)-1H-pyrrolo[2,3-c]pyridin-2(3H)-one], the inhibition at 1 µM came out at 76.9%, the inhibition at 10 µM was found to be 79.4% and the IC50 is under 50 nM.

Regarding `CCn1nc(N/C(C)=C2\C(=O)Nc3cnc(-c4c(C)cccc4F)cc32)cc1C` [Example 212, (Z)-3-(1-((1-Ethyl-5-methyl-1H-pyrazol-3-yl)amino)ethylidene)-5-(2-fluoro-6-methylphenyl)-1H-pyrrolo[2,3-c]pyridin-2(3H)-one], the inhibition at 1 µM came out at 63.1%, the inhibition at 10 µM amounted to 74.4% and the 50% inhibitory concentration (IC50) is under 50 nM.

For the compound `C/C(Nc1cc(C)n(CC(F)F)n1)=C1/C(=O)Nc2cnc(-c3cc(F)ccc3C)cc21` [Example 213, (Z)-3-(1-((1-(2,2-Difluoroethyl)-5-methyl-1H-pyrazol-3-yl)amino)ethylidene)-5-(5-fluoro-2-methylphenyl)-1H-pyrrolo[2,3-c]pyridin-2(3H)-one], the inhibition at 1 µM was 60.2%, the inhibition at 10 µM is 69.5% and the IC50 is under 50 nM.

In the case of `C/C(Nc1cc(C)n([C@@H](C)C#N)n1)=C1/C(=O)Nc2cnc(-c3cnccc3C)cc21` [Example 214, (S,Z)-2-(5-Methyl-3-((1-(5-(4-methylpyridin-3-yl)-2-oxo-1H-pyrrolo[2,3-c]pyridin-3(2H)-ylidene)ethyl)amino)-1H-pyrazol-1-yl)propanenitrile], the inhibition at 1 µM amounted to 69.7%, the inhibition at 10 µM is 67.7% and the IC50 is under 50 nM.

Consider `C/C(Nc1cc(C)n(C(F)F)n1)=C1/C(=O)Nc2cnc(-c3cc(F)ccc3C)cc21` [Example 215, (Z)-3-(1-((1-(Difluoromethyl)-5-methyl-1H-pyrazol-3-yl)amino)ethylidene)-5-(5-fluoro-2-methylphenyl)-1H-pyrrolo[2,3-c]pyridin-2(3H)-one], for which the inhibition at 1 µM is 67.3% and the IC50 is under 50 nM.

For the compound `C/C(Nc1cc(C)n(C[C@@H](C)O)n1)=C1/C(=O)Nc2cnc(-c3c(C)cccc3F)cc21` [Example 216, (R,Z)-5-(2-Fluoro-6-methylphenyl)-3-(1-((1-(2-hydroxypropyl)-5-methyl-1H-pyrazol-3-yl)amino)ethylidene)-1H-pyrrolo[2,3-c]pyridin-2(3H)-one], the inhibition at 1 µM was 72.1%, the inhibition at 10 µM turned out to be 68.6% and the IC50 is under 50 nM.

With `C/C(Nc1cc2n(n1)CCOC2)=C1/C(=O)Nc2cnc(-c3cc(F)ccc3C)cc21` [Example 218, (Z)-3-(1-((6,7-Dihydro-4H-pyrazolo[5,1-c][1,4]oxazin-2-yl)amino)ethylidene)-5-(5-fluoro-2-methylphenyl)-1H-pyrrolo[2,3-c]pyridin-2(3H)-one], the inhibition at 1 µM is 77.7% and the IC50 is under 50 nM.
